Assay results taken from ChEMBL document CHEMBL3885881, “DrugMatrix”.

Species on record: Rattus norvegicus
Assay: DrugMatrix - Regimen: Daily Repeat
Type: toxicity, organism-based, Sprague-Dawley
Parameters: regimen Daily Repeat, gender Male, age 6-8 weeks
Conditions: in vivo, po, route oral GAVAGE, vehicle 100 % WATER; for ABSOLUTE BASOPHIL / ABSOLUTE EOSINOPHIL / ABSOLUTE LYMPHOCYTE / ABSOLUTE MONOCYTE / ABSOLUTE SEGMENTED NEUTROPHIL / BASOPHIL / EOSINOPHIL / ERYTHROCYTE COUNT / HEMATOCRIT / HEMOGLOBIN / LEUKOCYTE COUNT / LYMPHOCYTE / MEAN CORPUSCULAR HEMOGLOBIN / MEAN CORPUSCULAR HEMOGLOBIN CONCENTRATION / MEAN CORPUSCULAR VOLUME / MONOCYTE / NEUTROPHIL / NUCLEATED RED BLOOD CELLS / PLATELET COUNT: tissue Blood; for ALANINE AMINOTRANSFERASE / ALBUMIN / ALKALINE PHOSPHATASE / ASPARTATE AMINOTRANSFERASE / BLOOD UREA NITROGEN / CARBON DIOXIDE / CHLORIDE / CHOLESTEROL / CREATINE PHOSPHOKINASE / CREATININE / GLUCOSE / LIPASE / PHOSPHORUS / POTASSIUM / SODIUM / TOTAL BILIRUBIN / TOTAL PROTEIN / URIC ACID: tissue Plasma
[1] = 0 mg/kg, 72 h, dose level Control, time 3 day
[2] = 0 mg/kg, 120 h, dose level Control, time 5 day
[3] = 10 mg/kg, 72 h, dose level Low, time 3 day
[4] = 10 mg/kg, 120 h, dose level Low, time 5 day

Fc1ccc([C@@H]2CCNC[C@H]2COc2ccc3c(c2)OCO3)cc1 [PAROXETINE]
ABSOLUTE BASOPHIL [1]: 0 CELLS/uL
ABSOLUTE EOSINOPHIL [1]: 32.5 CELLS/uL
ABSOLUTE LYMPHOCYTE [1]: 9305.83 CELLS/uL
ABSOLUTE MONOCYTE [1]: 43.83 CELLS/uL
ABSOLUTE SEGMENTED NEUTROPHIL [1]: 817.83 CELLS/uL
BASOPHIL [1]: 0%
EOSINOPHIL [1]: 0.33%
ERYTHROCYTE COUNT [1]: 5.38 x10E6/uL
HEMATOCRIT [1]: 33.63%
HEMOGLOBIN [1]: 13.17 G/DL
LEUKOCYTE COUNT [1]: 10.2 x10E3/uL
LYMPHOCYTE [1]: 91.17%
MEAN CORPUSCULAR HEMOGLOBIN [1]: 24.5 pg
MEAN CORPUSCULAR HEMOGLOBIN CONCENTRATION [1]: 39.13 G/DL
MEAN CORPUSCULAR VOLUME [1]: 62.53 fL
MONOCYTE [1]: 0.5%
NEUTROPHIL [1]: 8%
NUCLEATED RED BLOOD CELLS [1]: 0.17 /100WBC
PLATELET COUNT [1]: 858 x10E3/uL
ALANINE AMINOTRANSFERASE [1]: 55.67 u/L
ALBUMIN [1]: 4.07 G/DL
ALKALINE PHOSPHATASE [1]: 337 u/L
ASPARTATE AMINOTRANSFERASE [1]: 84 u/L
BLOOD UREA NITROGEN [1]: 13.17 mg/dL
CARBON DIOXIDE [1]: 34.17 mmol/L
CHLORIDE [1]: 99.33 MEQ/L
CHOLESTEROL [1]: 78.83 mg/dL
CREATINE PHOSPHOKINASE [1]: 576.83 u/L
CREATININE [1]: 0.17 mg/dL
GLUCOSE [1]: 152.67 mg/dL
LIPASE [1]: 9.5 u/L
PHOSPHORUS [1]: 10.78 mg/dL
POTASSIUM [1]: 6.34 MEQ/L
SODIUM [1]: 144.12 MEQ/L
TOTAL BILIRUBIN [1]: 0.18 mg/dL
TOTAL PROTEIN [1]: 6.08 G/DL
URIC ACID [1]: 0.65 mg/dL
ABSOLUTE BASOPHIL [2]: 0 CELLS/uL
ABSOLUTE EOSINOPHIL [2]: 31.17 CELLS/uL
ABSOLUTE LYMPHOCYTE [2]: 7918.33 CELLS/uL
ABSOLUTE MONOCYTE [2]: 58.33 CELLS/uL
ABSOLUTE SEGMENTED NEUTROPHIL [2]: 725.5 CELLS/uL
BASOPHIL [2]: 0%
EOSINOPHIL [2]: 0.33%
ERYTHROCYTE COUNT [2]: 5.32 x10E6/uL
HEMATOCRIT [2]: 33.53%
HEMOGLOBIN [2]: 13.17 G/DL
LEUKOCYTE COUNT [2]: 8.73 x10E3/uL
LYMPHOCYTE [2]: 90.33%
MEAN CORPUSCULAR HEMOGLOBIN [2]: 24.82 pg
MEAN CORPUSCULAR HEMOGLOBIN CONCENTRATION [2]: 39.33 G/DL
MEAN CORPUSCULAR VOLUME [2]: 63.12 fL
MONOCYTE [2]: 0.67%
NEUTROPHIL [2]: 8.67%
NUCLEATED RED BLOOD CELLS [2]: 0 /100WBC
PLATELET COUNT [2]: 1144.83 x10E3/uL
ALANINE AMINOTRANSFERASE [2]: 60.5 u/L
ALBUMIN [2]: 3.97 G/DL
ALKALINE PHOSPHATASE [2]: 343.17 u/L
ASPARTATE AMINOTRANSFERASE [2]: 80.83 u/L
BLOOD UREA NITROGEN [2]: 15 mg/dL
CARBON DIOXIDE [2]: 31 mmol/L
CHLORIDE [2]: 99.75 MEQ/L
CHOLESTEROL [2]: 71.5 mg/dL
CREATINE PHOSPHOKINASE [2]: 237.17 u/L
CREATININE [2]: 0.17 mg/dL
GLUCOSE [2]: 137 mg/dL
LIPASE [2]: 11.5 u/L
PHOSPHORUS [2]: 10.13 mg/dL
POTASSIUM [2]: 6 MEQ/L
SODIUM [2]: 145 MEQ/L
TOTAL BILIRUBIN [2]: 0.13 mg/dL
TOTAL PROTEIN [2]: 5.82 G/DL
URIC ACID [2]: 0.62 mg/dL
ABSOLUTE BASOPHIL [3]: 0 CELLS/uL
ABSOLUTE EOSINOPHIL [3]: 33 CELLS/uL
ABSOLUTE LYMPHOCYTE [3]: 7114.67 CELLS/uL
ABSOLUTE MONOCYTE [3]: 0 CELLS/uL
ABSOLUTE SEGMENTED NEUTROPHIL [3]: 519 CELLS/uL
BASOPHIL [3]: 0%
EOSINOPHIL [3]: 0.33%
ERYTHROCYTE COUNT [3]: 5.11 x10E6/uL
HEMATOCRIT [3]: 31.5%
HEMOGLOBIN [3]: 12.33 G/DL
LEUKOCYTE COUNT [3]: 7.67 x10E3/uL
LYMPHOCYTE [3]: 92.67%
MEAN CORPUSCULAR HEMOGLOBIN [3]: 24.2 pg
MEAN CORPUSCULAR HEMOGLOBIN CONCENTRATION [3]: 39.2 G/DL
MEAN CORPUSCULAR VOLUME [3]: 61.7 fL
MONOCYTE [3]: 0%
NEUTROPHIL [3]: 7%
NUCLEATED RED BLOOD CELLS [3]: 0.33 /100WBC
PLATELET COUNT [3]: 979 x10E3/uL
ALANINE AMINOTRANSFERASE [3]: 52.67 u/L
ALBUMIN [3]: 4 G/DL
ALKALINE PHOSPHATASE [3]: 368 u/L
ASPARTATE AMINOTRANSFERASE [3]: 88.67 u/L
BLOOD UREA NITROGEN [3]: 16 mg/dL
CARBON DIOXIDE [3]: 35.33 mmol/L
CHLORIDE [3]: 100.33 MEQ/L
CHOLESTEROL [3]: 67.33 mg/dL
CREATINE PHOSPHOKINASE [3]: 233 u/L
CREATININE [3]: 0.14 mg/dL
GLUCOSE [3]: 119.33 mg/dL
LIPASE [3]: 9.33 u/L
PHOSPHORUS [3]: 10.97 mg/dL
POTASSIUM [3]: 6.17 MEQ/L
SODIUM [3]: 145.03 MEQ/L
TOTAL BILIRUBIN [3]: 0.2 mg/dL
TOTAL PROTEIN [3]: 5.83 G/DL
URIC ACID [3]: 0.77 mg/dL
ABSOLUTE BASOPHIL [4]: 0 CELLS/uL
ABSOLUTE EOSINOPHIL [4]: 0 CELLS/uL
ABSOLUTE LYMPHOCYTE [4]: 6074.67 CELLS/uL
ABSOLUTE MONOCYTE [4]: 188.33 CELLS/uL
ABSOLUTE SEGMENTED NEUTROPHIL [4]: 703.67 CELLS/uL
BASOPHIL [4]: 0%
EOSINOPHIL [4]: 0%
ERYTHROCYTE COUNT [4]: 5.7 x10E6/uL
HEMATOCRIT [4]: 34.77%
HEMOGLOBIN [4]: 13.23 G/DL
LEUKOCYTE COUNT [4]: 6.97 x10E3/uL
LYMPHOCYTE [4]: 86.67%
MEAN CORPUSCULAR HEMOGLOBIN [4]: 23.2 pg
MEAN CORPUSCULAR HEMOGLOBIN CONCENTRATION [4]: 38.07 G/DL
MEAN CORPUSCULAR VOLUME [4]: 61 fL
MONOCYTE [4]: 2.33%
NEUTROPHIL [4]: 11%
NUCLEATED RED BLOOD CELLS [4]: 0 /100WBC
PLATELET COUNT [4]: 1176.67 x10E3/uL
ALANINE AMINOTRANSFERASE [4]: 56.33 u/L
ALBUMIN [4]: 4.17 G/DL
ALKALINE PHOSPHATASE [4]: 432.67 u/L
ASPARTATE AMINOTRANSFERASE [4]: 87.67 u/L
BLOOD UREA NITROGEN [4]: 17 mg/dL
CARBON DIOXIDE [4]: 31.67 mmol/L
CHLORIDE [4]: 99.67 MEQ/L
CHOLESTEROL [4]: 81 mg/dL
CREATINE PHOSPHOKINASE [4]: 254 u/L
CREATININE [4]: 0.19 mg/dL
GLUCOSE [4]: 152.67 mg/dL
LIPASE [4]: 9.67 u/L
PHOSPHORUS [4]: 10.57 mg/dL
POTASSIUM [4]: 6.09 MEQ/L
SODIUM [4]: 145.13 MEQ/L
TOTAL BILIRUBIN [4]: 0.2 mg/dL
TOTAL PROTEIN [4]: 6.03 G/DL
URIC ACID [4]: 0.77 mg/dL
